Reference: ChEMBL document CHEMBL1136799, “Design and synthesis of pyrrolidine-5,5'-trans-lactams (5-oxo-hexahydropyrrolo[3,2-b]pyrroles) as novel mechanism-based inhibitors of human cytomegalovirus protease. 4. Antiviral activity and plasma stability” (J Med Chem, 2003)
pIC50, pKi: −log10 of the molar value.

Assays:
[1] = biological target: T1, Capsid scaffolding protein (Human cytomegalovirus (strain AD169) (HHV-5) (Human herpesvirus 5), UniProt P16753); experiment: Potency against human cytomegalovirus protease in HCMV pNA assay; parameters: species or system Human herpesvirus 5 strain AD169
T1 sequence (P16753 whole entry): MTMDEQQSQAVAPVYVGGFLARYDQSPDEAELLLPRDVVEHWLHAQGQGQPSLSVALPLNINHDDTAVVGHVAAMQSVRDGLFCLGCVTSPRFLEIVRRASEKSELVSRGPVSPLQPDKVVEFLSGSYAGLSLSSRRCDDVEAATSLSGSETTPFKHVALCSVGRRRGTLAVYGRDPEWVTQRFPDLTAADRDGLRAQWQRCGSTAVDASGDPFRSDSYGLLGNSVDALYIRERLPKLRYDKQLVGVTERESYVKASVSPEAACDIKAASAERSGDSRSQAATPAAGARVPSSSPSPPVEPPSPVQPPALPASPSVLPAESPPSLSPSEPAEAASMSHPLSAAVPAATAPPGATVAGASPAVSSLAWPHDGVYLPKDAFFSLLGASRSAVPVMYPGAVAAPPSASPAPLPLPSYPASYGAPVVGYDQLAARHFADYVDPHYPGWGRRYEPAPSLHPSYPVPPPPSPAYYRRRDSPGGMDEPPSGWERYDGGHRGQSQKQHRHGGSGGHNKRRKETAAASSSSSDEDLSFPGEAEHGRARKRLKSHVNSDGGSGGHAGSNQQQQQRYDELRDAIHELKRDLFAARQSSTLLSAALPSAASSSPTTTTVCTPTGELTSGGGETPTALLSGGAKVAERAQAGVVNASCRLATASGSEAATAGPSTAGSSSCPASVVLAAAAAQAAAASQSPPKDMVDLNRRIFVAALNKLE

[2] = biological target: T1, Capsid scaffolding protein; experiment: Inhibition of human cytomegalovirus protease in HCMV pNA assay.; parameters: species or system Human herpesvirus 5 strain AD169
[3] = test system: Vero; experiment: Growth inhibition of cytomegalovirus in Vero cells; assay type: functional, Human betaherpesvirus 5
[4] = Compound was tested for its stability in human plasma; assay type: ADME, organism-based
[5] = test system: Human betaherpesvirus 5; experiment: Concentration required to inhibit human cytomegalovirus HCMV-AD169 in antiviralplaque reduction assay; assay type: functional, organism-based
[6] = test system: Human betaherpesvirus 5; experiment: Concentration required to inhibit human cytomegalovirus HCMV-AD169 in ELISA assay

Compound	pKi [1]	pIC50 [2]	CCID50 [3]	half-life [4]	pIC50 [5]	pIC50 [6]
CC(C)Oc1ccc(NC(=O)N2CCC[C@H]2C(=O)N2CC[C@H]3[C@H]2[C@H](C)C(=O)N3C(=O)C2CC2)cc1	7.74	6.74				
CCCOc1ccc(-c2ccc(S(=O)(=O)N3CCC[C@H]3C(=O)N3CC[C@H]4[C@H]3[C@H](C)C(=O)N4C(=O)C3CC3)cc2)cc1	7.48					
C[C@@H]1C(=O)N(C(=O)C2CC2)[C@H]2CCN(C(=O)[C@@H]3CCCN3C(=O)c3ccc(-c4ccc(Cl)cc4)cc3)[C@H]12		5.85				
CC(C)c1ccc(NC(=O)N2CCC[C@H]2C(=O)N2CC[C@H]3[C@H]2[C@H](C)C(=O)N3c2nc3ccc(F)cc3s2)cc1		6.44	298 µM	> 24 h	4.91	
CCCOc1ccc(C(=O)N2CCC[C@H]2C(=O)N2CC[C@H]3[C@H]2[C@H](C)C(=O)N3C(=O)C2CC2)cc1	7.10	6.27				
CCCOc1ccc(-c2ccc(C(=O)N3CCC[C@H]3C(=O)N3CC[C@H]4[C@H]3[C@H](C)C(=O)N4C(=O)C3CC3)cc2)cc1	7.10					
C[C@@H]1C(=O)N(C(=O)C2CC2)[C@H]2CCN(C(=O)[C@@H]3CCCN3C(=O)Nc3ccc(C(F)(F)F)cc3)[C@H]12	7.82	6.64				
C[C@@H]1C(=O)N(C(=O)C2CC2)[C@H]2CCN(C(=O)[C@@H]3CCCN3C(=O)Nc3cccc(Cl)c3)[C@H]12		6.19				
CC(C)Oc1ccc(S(=O)(=O)N2CCC[C@H]2C(=O)N2CC[C@H]3[C@H]2[C@H](C)C(=O)N3C(=O)C2CC2)cc1	7.41	6.40				
CC(C)c1ccc(NC(=O)N2CCC[C@H]2C(=O)N2CC[C@H]3[C@H]2[C@H](C)C(=O)N3c2ccc([N+](=O)[O-])cc2)cc1		5.06	69 µM	> 24 h	< 4.15	
CC(C)c1ccc(S(=O)(=O)N2CCC[C@H]2C(=O)N2CC[C@H]3[C@H]2[C@H](C)C(=O)N3C(=O)C2CC2)cc1	7.00	6.34				
CC(C)c1ccc(NC(=O)N2CCC[C@H]2C(=O)N2CC[C@H]3[C@H]2[C@H](C)C(=O)N3c2nc3cc(S(=O)(=O)C(F)F)ccc3s2)cc1		6.68	>500 µM		5.66	
C[C@@H]1C(=O)N(C(=O)C2CC2)[C@H]2CCN(C(=O)[C@@H]3CCCN3C(=O)c3ccc(Cl)cc3)[C@H]12		5.85				
COc1ccc2nc(N3C(=O)[C@@H](C)[C@@H]4[C@@H]3CCN4C(=O)[C@@H]3CCCN3C(=O)Nc3ccc(C(C)C)cc3)sc2c1	7.37	6.66	>500 µM		5.49	
CCCOc1ccc(-c2ccc(NC(=O)N3CCC[C@H]3C(=O)N3CC[C@H]4[C@H]3[C@H](C)C(=O)N4C(=O)C3CC3)cc2)cc1	8.05					
C[C@@H]1C(=O)N(C(=O)C2CC2)[C@H]2CCN(C(=O)[C@@H]3CCCN3C(=O)Nc3cccc4ccccc34)[C@H]12		6.19				
C[C@@H]1C(=O)N(C(=O)C2CC2)[C@H]2CCN(C(=O)[C@@H]3CCCN3S(=O)(=O)c3cccc4cc(N(C)C)ccc34)[C@H]12		5.96				
CC(C)c1ccc(NC(=O)N2CCC[C@H]2C(=O)N2CC[C@H]3[C@H]2[C@H](C)C(=O)N3c2nc3c(Cl)cccc3s2)cc1		6.54	>500 µM		4.77	
CC(C)c1ccc(NC(=O)N2CCC[C@H]2C(=O)N2CC[C@H]3[C@H]2[C@H](C)C(=O)N3C(=O)C2[C@@H](C)[C@H]2C)cc1 (some centres not stated)		5.74	375 µM	1.5 h	< 4.52	
Cc1c(C(=O)N2CCC[C@H]2C(=O)N2CC[C@H]3[C@H]2[C@H](C)C(=O)N3C(=O)C2CC2)sc2ccc(Cl)cc12	8.70	6.72				
CC(C)c1ccc(NC(=O)N2CCC[C@H]2C(=O)N2CC[C@H]3[C@H]2[C@H](C)C(=O)N3c2nc3cc(Cl)ccc3s2)cc1		6.34	266 µM		4.31	
CC(C)c1ccc(NC(=O)N2CCC[C@H]2C(=O)N2CC[C@H]3[C@H]2[C@H](C)C(=O)N3C(=O)C2C(C)(C)C2(C)C)cc1		< 4.70	38 µM	16 h	< 4.46	
C[C@@H]1C(=O)N(C(=O)C2CC2)[C@H]2CCN(C(=O)[C@@H]3CCCN3S(=O)(=O)c3ccccc3)[C@H]12		5.74				

Compound	pKi [1]	pIC50 [2]	CCID50 [3]	half-life [4]	pIC50 [5]	pIC50 [6]
CC(C)c1ccc(C(=O)N2CCC[C@H]2C(=O)N2CC[C@H]3[C@H]2[C@H](C)C(=O)N3C(=O)C2CC2)cc1		6.41				
C[C@@H]1C(=O)N(C(=O)C2CC2)[C@H]2CCN(C(=O)[C@@H]3CCCN3S(=O)(=O)c3ccc(Cl)cc3)[C@H]12		6.08				
CC(C)c1ccc(NC(=O)N2CCC[C@H]2C(=O)N2CC[C@H]3[C@H]2[C@H](C)C(=O)N3c2nc3cccnc3s2)cc1	7.68	6.54	<31 µM	8 h		5.44
CC(C)c1ccccc1NC(=O)N1CCC[C@H]1C(=O)N1CC[C@H]2[C@H]1[C@H](C)C(=O)N2C(=O)C1CC1		6.33				
C[C@@H]1C(=O)N(C(=O)C2CC2)[C@H]2CCN(C(=O)[C@@H]3CCCN3C(=O)c3ccc(-c4ccccc4)cc3)[C@H]12	7.68	6.52				
C[C@@H]1C(=O)N(C(=O)C2CC2)[C@H]2CCN(C(=O)[C@@H]3CCCN3C(=O)Nc3ccc(Cl)cc3)[C@H]12	7.42	6.59				
C[C@@H]1C(=O)N(C(=O)C2CC2)[C@H]2CCN(C(=O)[C@@H]3CCCN3S(=O)(=O)c3ccc4ccccc4c3)[C@H]12	7.40	> 6.72				
CC(C)c1ccc(NC(=O)N2CCC[C@H]2C(=O)N2CC[C@H]3[C@H]2[C@H](C)C(=O)N3c2nccs2)cc1	6.35	5.82	280 µM	> 24 h	< 4.52	
CC(C)c1ccc(NC(=O)N2CCC[C@H]2C(=O)N2CC[C@H]3[C@H]2[C@H](C)C(=O)N3c2nc3ccc([N+](=O)[O-])cc3s2)cc1	7.60	6.41	128 µM	24 h	5.06	
C[C@@H]1C(=O)N(C(=O)C2CC2)[C@H]2CCN(C(=O)[C@@H]3CCCN3S(=O)(=O)c3ccc(-c4ccc(Cl)cc4)cc3)[C@H]12		6.08				
CCCOc1ccc(S(=O)(=O)N2CCC[C@H]2C(=O)N2CC[C@H]3[C@H]2[C@H](C)C(=O)N3C(=O)C2CC2)cc1	7.48	6.64				
COc1ccc(C)c2sc(N3C(=O)[C@@H](C)[C@@H]4[C@@H]3CCN4C(=O)[C@@H]3CCCN3C(=O)Nc3ccc(C(C)C)cc3)nc12		5.96	126 µM	> 24 h	4.76	
COc1ccc2sc(N3C(=O)[C@@H](C)[C@@H]4[C@@H]3CCN4C(=O)[C@@H]3CCCN3C(=O)Nc3ccc(C(C)C)cc3)nc2c1		6.64	>500 µM		5.62	
C[C@@H]1C(=O)N(C(=O)C2CC2)[C@H]2CCN(C(=O)[C@@H]3CCCN3C(=O)Nc3ccccc3)[C@H]12		5.85				
C[C@@H]1C(=O)N(C(=O)C2CC2)[C@H]2CCN(C(=O)[C@@H]3CCCN3C(=O)Nc3cccc(C(F)(F)F)c3)[C@H]12		6.23				
COc1ccc2nc(N3C(=O)[C@@H](C)[C@@H]4[C@@H]3CCN4C(=O)[C@@H]3CCCN3C(=O)Nc3ccc(C(C)C)cc3)sc2n1		6.06	>500 µM	9 h	4.51	
C[C@@H]1C(=O)N(C(=O)C2CC2)[C@H]2CCN(C(=O)[C@@H]3CCCN3S(=O)(=O)Cc3ccccc3)[C@H]12		5.68				
C[C@@H]1C(=O)N(C(=O)C2CC2)[C@H]2CCN(C(=O)[C@@H]3CCCN3C(=O)c3cccc4ccccc34)[C@H]12		6.05				
COc1cccc2sc(N3C(=O)[C@@H](C)[C@@H]4[C@@H]3CCN4C(=O)[C@@H]3CCCN3C(=O)Nc3ccc(C(C)C)cc3)nc12		6.62	89 µM		5.28	
C[C@@H]1C(=O)N(C(=O)C2CC2)[C@H]2CCN(C(=O)[C@@H]3CCCN3C(=O)Nc3ccc(-c4ccc(Cl)cc4)cc3)[C@H]12		6.59				
C[C@@H]1C(=O)N(C(=O)C2CC2)[C@H]2CCN(C(=O)[C@@H]3CCCN3S(=O)(=O)c3cccc4ccccc34)[C@H]12	7.22	6.43				
CCCOc1ccc(NC(=O)N2CCC[C@H]2C(=O)N2CC[C@H]3[C@H]2[C@H](C)C(=O)N3C(=O)C2CC2)cc1	8.05	6.68				
Nc1nc2c(ncn2COC(CO)CO)c(=O)[nH]1 [GANCICLOVIR]			>500 µM		6.14	
